Assay results as given in US10370381B2, “Inhibitors of bruton'S tyrosine kinase” (GILEAD SCIENCES, INC., priority 2017, dated 2019).
Structures can show the parent of a compound that is named as a salt.

Test: Dynamic Vapor Sorption (DVS), hygroscopicity of solids
Assay type: physicochemical
Conditions: from about 10% to about 90% RH at about 25° C.
Procedure: Dynamic Vapor Sorption (DVS):
DVS data, which was used to determine the hygroscopicity of solids, were collected on a TA Instruments Q5000SA system. The temperature-controlled chamber was set at 25° C. and dry nitrogen was introduced at a flow rate of 10 mL/min. Approximately 1 to 5 mg sample was placed in a semispherical metal-coated quartz crucible or a disposable aluminum pan. A stepwise isotherm experiment at 25° C. was conducted by controlling the relative humidity (RH) in the chamber from 10% to 90%, then down to 10%, at 10% increments to accomplish a full sorption/desorption cycle.

Q: With `CC#CC(=O)N1CC[C@@H](n2c(=O)n(-c3ccc(Oc4ccccc4)cc3)c3c(N)ncnc32)C1` [Compound (I) oxalate, 6-amino-9-[(3R)-1-(2-butynoyl)-3-pyrrolidinyl]-7-(4-phenoxyphenyl)-7,9-dihydro-8H-purin-8-one] as the compound, how does the “dynamic vapor sorption isotherm water uptake” value read?
A: about 0.5%

Q: Which “dynamic vapor sorption isotherm water uptake” value does the source give for `CC#CC(=O)N1CC[C@@H](n2c(=O)n(-c3ccc(Oc4ccccc4)cc3)c3c(N)ncnc32)C1` [Compound (I) succinate, 6-amino-9-[(3R)-1-(2-butynoyl)-3-pyrrolidinyl]-7-(4-phenoxyphenyl)-7,9-dihydro-8H-purin-8-one] here?
A: about 0.2%

Q: For `CC#CC(=O)N1CC[C@@H](n2c(=O)n(-c3ccc(Oc4ccccc4)cc3)c3c(N)ncnc32)C1` [Compound (I) edisylate, 6-amino-9-[(3R)-1-(2-butynoyl)-3-pyrrolidinyl]-7-(4-phenoxyphenyl)-7,9-dihydro-8H-purin-8-one], which “dynamic vapor sorption isotherm water uptake” value is on record?
A: about 22%

Q: For `CC#CC(=O)N1CC[C@@H](n2c(=O)n(-c3ccc(Oc4ccccc4)cc3)c3c(N)ncnc32)C1` [Compound (I) hemisulfate, 6-amino-9-[(3R)-1-(2-butynoyl)-3-pyrrolidinyl]-7-(4-phenoxyphenyl)-7,9-dihydro-8H-purin-8-one], which “dynamic vapor sorption isotherm water uptake” value is on record?
A: about 1.2%

Q: With `CC#CC(=O)N1CC[C@@H](n2c(=O)n(-c3ccc(Oc4ccccc4)cc3)c3c(N)ncnc32)C1` [Compound (I) hemiedisylate, 6-amino-9-[(3R)-1-(2-butynoyl)-3-pyrrolidinyl]-7-(4-phenoxyphenyl)-7,9-dihydro-8H-purin-8-one] as the compound, how does the “dynamic vapor sorption isotherm water uptake” value read?
A: about 3%

Q: Which “dynamic vapor sorption isotherm water uptake” value does the source give for `CC#CC(=O)N1CC[C@@H](n2c(=O)n(-c3ccc(Oc4ccccc4)cc3)c3c(N)ncnc32)C1` [Compound (I) fumarate, 6-amino-9-[(3R)-1-(2-butynoyl)-3-pyrrolidinyl]-7-(4-phenoxyphenyl)-7,9-dihydro-8H-purin-8-one] here?
A: about 0.1%

Q: With `CC#CC(=O)N1CC[C@@H](n2c(=O)n(-c3ccc(Oc4ccccc4)cc3)c3c(N)ncnc32)C1` [Compound (I) heminapadisylate, 6-amino-9-[(3R)-1-(2-butynoyl)-3-pyrrolidinyl]-7-(4-phenoxyphenyl)-7,9-dihydro-8H-purin-8-one] as the compound, how does the “dynamic vapor sorption isotherm water uptake” value read?
A: about 6.5%
